{"source": "patent US20240173254A1", "about": "“TASIPIMIDINE FORMULATIONS AND USE THEREOF” (ORION CORPORATION, priority 2021, published 2024)", "origin": "cited, not measured here", "key": {"[1]": {"test_system": "dogs"}, "[2]": {"details": "in vivo"}}}
{"smiles": "COc1cccc2c1CCOC2C1=NCCN1", "note": "(centres unmarked) [tasipimidine, 2-(5-methoxyisochroman-1-yl)-4,5-dihydro-1H-imidazole]", "values": [{"measurement": "relieving situational anxiety and fear triggered by noise or owner departure", "setting": "[1]", "value": "effective"}, {"measurement": "elimination half-life (t1/2) compared with clonidine", "setting": "[2]", "value": "shorter elimination half-life (t1/2) than clonidine"}]}
